According to article PMC6100347, “Simultaneous Determination of Decursin, Decursinol Angelate, Nodakenin, and Decursinol of Angelica gigas Nakai in Human Plasma by UHPLC-MS/MS: Application to Pharmacokinetic Study” (Molecules : A Journal of Synthetic Chemistry and Natural …, 2018):

Legend:
[1] = Published PK study of AGN-based dietary supplement Cogni Q after oral administration in humans; format: in vivo, human; conditions: Cogni Q (ref 23) vs 4.6 g AGN root extract powder
Protocol: PK study of the four coumarins has been reported in several studies. However, presented PK parameters are inconsistent with each other. Of these studies, only one paper has reported a PK study for D, DA, and DOH after oral administration in humans (male, n = 10) for AGN-based dietary supplement Cogni Q (119 mg D and 77 mg DA from four vegicaps). […] Such discrepancies in PK parameters between that study and the current study might be due to differences in dosage and the influence of excipients from different formulations. PKs of nodakenin in humans have not been reported previously.

[2] = Stability in human plasma under various storage conditions (QC samples); format: in vitro ADME; conditions: in % (unit assumed); for Stability, Processed Sample (10 °C in Auto Sampler for 24 h): extracted human plasma sample; for Stability, Processed Sample (10 °C in Auto Sampler for 24 h) / Stability, Long-Term (−80 °C for 30 Days) / Stability, Bench-Top (8 h at Room Temperature) / Stability, Freeze-Thaw (3 Cycles): mean ± SD, n = 5; for Stability, Long-Term (−80 °C for 30 Days) / Stability, Bench-Top (8 h at Room Temperature) / Stability, Freeze-Thaw (3 Cycles) / Stability mean values (range over all storage conditions and concentrations): human plasma; for Stability, Bench-Top (8 h at Room Temperature): measured vs initial value; for Stability, Freeze-Thaw (3 Cycles): −80 °C and room temperature; for Stability mean values (range over all storage conditions and concentrations): bench-top, processed sample, freeze-thaw, long-term, low and high QC
Protocol: Bench-top stability test was conducted by using unextracted QC samples at room temperature for 8 h. Processed sample stability test was carried out by analyzing extracted samples in an auto sampler at 10 °C for 24 h. Freeze–thaw stability was estimated after three frozen and thawing cycles at −80 °C and room temperature on consecutive days. Long-term stability was examined after storing samples at −80 °C for a month. Stability of each coumarin was estimated by comparing the initial value with measured value after the examination (n = 5). The sample was considered stable if each value was less than 15% and all value of data expressed as mean ± standard deviation (mean ± SD).

[3] = Pharmacokinetic study after oral administration of AGN root extract powder in healthy Korean subjects; format: in vivo, human; conditions: mean ± SE, n = 10; for Cmax / AUC(0-inf) / Tmax / half-life / Vd/F: male; for Cmax / AUC(0-inf) / Tmax / half-life: human plasma; for Cmax: single usual oral dose of 4.6 g AGN root extract powder (0.055 mg D, 0.184 mg DA, 1.095 mg nodakenin); for AUC(0-inf) / Tmax / half-life / CL/F / Vd/F: single usual oral dose of 4.6 g AGN root extract powder; for CL/F / Vd/F: humans; for CL/F: dose of each coumarin / AUC0–∞; for Vd/F: human, plasma
Protocol: Ten healthy male subjects (Korean, 23–25 years, weight of 56.7–86.2 kg, and height of 159.8–188.0 cm) were included for this clinical trial. These subjects were in good health condition prior to this study based on a physical examination, medical history, and laboratory tests. Clinical trial protocol was approved by the Institutional Review Board of Wonkwang Oriental Medicine Hospital, Gwangju, Korea (https://cris.nih.go.kr, no. KCT0001118). This clinical trial was carried out in accordance with the revised Declaration of Helsinki for biomedical research involving human subjects and Guideline for Good Clinical Practice.
All subjects fasted for at least 10 h before drug administration. They continued the fasting for another 4 h. These subjects abstained from consuming alcohol or xanthine-containing foods, or beverages during the study. A usual oral dose of AGN root extract powder was given to each subject with 240 mL of spring water. The usual dose approved by the MFDS was of 4.6 g. It contained 0.055 mg of D, 0.184 mg of DA, and 1.095 mg of nodakenin. Blood samples were taken from the forearm vein before and at 0.25, 0.5, 0.75, 1, 2, 3, 4, 6, 8, 12, and 24 h after oral administration. Samples were transferred to Vacutainer® (10 mL, Becton Dickinson and Company, NJ, USA) tubes and immediately centrifuged (10,000× g, 10 min, 4 °C) to obtain plasma samples. Obtained plasma samples were transferred to polyethylene tubes and stored at −80 °C until analysis.
Plasma concentration–time data were analyzed with non-compartmental method using WinNonlin® software (version 7.0, Pharsight®, Certara™ Company, Princeton, NJ, USA) to obtain pharmacokinetic parameters. The area under the plasma concentration–time curve from zero to time infinity (AUC0–∞) was calculated as AUC0–t + Ct/k, where Ct is was the last measurable concentration. AUC0–t was calculated by linear trapezoidal rule from zero to the last measurable time point. Oral clearance (CL/F) was calculated as dose of each coumarin divided by AUC0–∞, where F was oral bioavailability. The t1/2 was calculated as 0.693/k, where k was terminal rate constant. All results are expressed as mean value ± standard error (mean ± SE, n = 10).

| t1/2 of published study relative to t1/2 of this study (times longer) [1] | Stability, Processed Sample (10 °C in Auto Sampler for 24 h) ([2]; nominal conc. 0.15 ng/mL) | Stability, Processed Sample (10 °C in Auto Sampler for 24 h) ([2]; nominal conc. 40 ng/mL) | Stability, Long-Term (−80 °C for 30 Days) ([2]; nominal conc. 0.15 ng/mL) | Stability, Bench-Top (8 h at Room Temperature) ([2]; nominal conc. 0.15 ng/mL) | Stability, Freeze-Thaw (3 Cycles) ([2]; nominal conc. 0.15 ng/mL) | Stability, Long-Term (−80 °C for 30 Days) ([2]; nominal conc. 40 ng/mL) | Stability, Bench-Top (8 h at Room Temperature) ([2]; nominal conc. 40 ng/mL) | Stability, Freeze-Thaw (3 Cycles) ([2]; nominal conc. 40 ng/mL) | Stability mean values (range over all storage conditions and concentrations) [2] | Cmax [3] [ng/mL] | AUC(0-inf) [3] [µg·h/mL] | Tmax [3] [h] | half-life [3] [h] | CL/F [3] [L/h] | Vd/F [3] [L] | SMILES |
| --- | --- | --- | --- | --- | --- | --- | --- | --- | --- | --- | --- | --- | --- | --- | --- | --- |
| ~2.5 times | 102.43 ± 5.27 | 104.77 ± 2.48 | 87.35 ± 9.60 | 89.75 ± 11.39 | 92.06 ± 2.28 | 106.93 ± 11.89 | 101.81 ± 7.72 | 104.29 ± 9.30 | 87.35–106.93 | 0.92 ± 0.16 | 0.00243 ± 0.00045 | 0.64 ± 0.06 | 2.62 ± 0.5 | – | – | CC1(C)Oc2cc3oc(=O)ccc3cc2C[C@@H]1O [DOH, decursinol] |
| ~3.7 times | 111.85 ± 12.49 | 103.88 ± 3.51 | 106.20 ± 9.09 | 108.58 ± 10.18 | 103.55 ± 8.34 | 99.35 ± 4.17 | 107.87 ± 4.07 | 100.75 ± 4.12 | 99.35–111.85 | 7.72 ± 0.84 | 0.0196 ± 0.00371 | 0.31 ± 0.04 | 4.04 ± 0.64 | 12.00 ± 1.97 | 60 ± 7.3 | C/C=C(/C)C(=O)O[C@H]1Cc2cc3ccc(=O)oc3cc2OC1(C)C [DA, decursinol angelate] |
| – | 107.70 ± 9.77 | 103.17 ± 10.19 | 111.62 ± 8.13 | 101.43 ± 7.53 | 103.49 ± 8.40 | 101.90 ± 9.83 | 107.91 ± 6.81 | 104.79 ± 12.76 | 101.43–111.62 | 0.95 ± 0.17 | 0.00311 ± 0.0008 | 0.67 ± 0.04 | 6.28 ± 2.47 | 622.29 ± 159.24 | 2800 ± 420 | CC(C)(O[C@@H]1O[C@H](CO)[C@@H](O)[C@H](O)[C@H]1O)[C@H]1Cc2cc3ccc(=O)oc3cc2O1 [Nodakenin, nodakenin] |
| about 5.84 times | 100.34 ± 9.38 | 108.94 ± 11.50 | 105.00 ± 9.02 | 101.91 ± 3.91 | 96.54 ± 10.95 | 102.26 ± 10.17 | 108.71 ± 14.16 | 102.80 ± 12.88 | 96.54–108.94 | 11.9 ± 1.43 | 0.0223 ± 0.00504 | 0.44 ± 0.05 | 3.03 ± 0.52 | 3.11 ± 0.42 | 11.9 ± 1.5 | CC(C)=CC(=O)O[C@H]1Cc2cc3ccc(=O)oc3cc2OC1(C)C [D, decursin] |
